The values below are quoted from earlier work in patent US6710051B1, “Screening method” (Klaus Trier APS, priority 1997, dated 2004).

Molecules are shown by their SMILES. Where two headings read alike, the source gives them in different places.

For the data set, the target named is T1, skeletal RyR (Oryctolagus cuniculus, UniProt P11716).
T1 construct: Structure-activity Relationship of Xanthines and Skeletal Muscle Ryanodine Receptor/Ca^2+ Release Channel; from tissue; host or cells: Skeletal muscle
T1 sequence (P11716 whole entry): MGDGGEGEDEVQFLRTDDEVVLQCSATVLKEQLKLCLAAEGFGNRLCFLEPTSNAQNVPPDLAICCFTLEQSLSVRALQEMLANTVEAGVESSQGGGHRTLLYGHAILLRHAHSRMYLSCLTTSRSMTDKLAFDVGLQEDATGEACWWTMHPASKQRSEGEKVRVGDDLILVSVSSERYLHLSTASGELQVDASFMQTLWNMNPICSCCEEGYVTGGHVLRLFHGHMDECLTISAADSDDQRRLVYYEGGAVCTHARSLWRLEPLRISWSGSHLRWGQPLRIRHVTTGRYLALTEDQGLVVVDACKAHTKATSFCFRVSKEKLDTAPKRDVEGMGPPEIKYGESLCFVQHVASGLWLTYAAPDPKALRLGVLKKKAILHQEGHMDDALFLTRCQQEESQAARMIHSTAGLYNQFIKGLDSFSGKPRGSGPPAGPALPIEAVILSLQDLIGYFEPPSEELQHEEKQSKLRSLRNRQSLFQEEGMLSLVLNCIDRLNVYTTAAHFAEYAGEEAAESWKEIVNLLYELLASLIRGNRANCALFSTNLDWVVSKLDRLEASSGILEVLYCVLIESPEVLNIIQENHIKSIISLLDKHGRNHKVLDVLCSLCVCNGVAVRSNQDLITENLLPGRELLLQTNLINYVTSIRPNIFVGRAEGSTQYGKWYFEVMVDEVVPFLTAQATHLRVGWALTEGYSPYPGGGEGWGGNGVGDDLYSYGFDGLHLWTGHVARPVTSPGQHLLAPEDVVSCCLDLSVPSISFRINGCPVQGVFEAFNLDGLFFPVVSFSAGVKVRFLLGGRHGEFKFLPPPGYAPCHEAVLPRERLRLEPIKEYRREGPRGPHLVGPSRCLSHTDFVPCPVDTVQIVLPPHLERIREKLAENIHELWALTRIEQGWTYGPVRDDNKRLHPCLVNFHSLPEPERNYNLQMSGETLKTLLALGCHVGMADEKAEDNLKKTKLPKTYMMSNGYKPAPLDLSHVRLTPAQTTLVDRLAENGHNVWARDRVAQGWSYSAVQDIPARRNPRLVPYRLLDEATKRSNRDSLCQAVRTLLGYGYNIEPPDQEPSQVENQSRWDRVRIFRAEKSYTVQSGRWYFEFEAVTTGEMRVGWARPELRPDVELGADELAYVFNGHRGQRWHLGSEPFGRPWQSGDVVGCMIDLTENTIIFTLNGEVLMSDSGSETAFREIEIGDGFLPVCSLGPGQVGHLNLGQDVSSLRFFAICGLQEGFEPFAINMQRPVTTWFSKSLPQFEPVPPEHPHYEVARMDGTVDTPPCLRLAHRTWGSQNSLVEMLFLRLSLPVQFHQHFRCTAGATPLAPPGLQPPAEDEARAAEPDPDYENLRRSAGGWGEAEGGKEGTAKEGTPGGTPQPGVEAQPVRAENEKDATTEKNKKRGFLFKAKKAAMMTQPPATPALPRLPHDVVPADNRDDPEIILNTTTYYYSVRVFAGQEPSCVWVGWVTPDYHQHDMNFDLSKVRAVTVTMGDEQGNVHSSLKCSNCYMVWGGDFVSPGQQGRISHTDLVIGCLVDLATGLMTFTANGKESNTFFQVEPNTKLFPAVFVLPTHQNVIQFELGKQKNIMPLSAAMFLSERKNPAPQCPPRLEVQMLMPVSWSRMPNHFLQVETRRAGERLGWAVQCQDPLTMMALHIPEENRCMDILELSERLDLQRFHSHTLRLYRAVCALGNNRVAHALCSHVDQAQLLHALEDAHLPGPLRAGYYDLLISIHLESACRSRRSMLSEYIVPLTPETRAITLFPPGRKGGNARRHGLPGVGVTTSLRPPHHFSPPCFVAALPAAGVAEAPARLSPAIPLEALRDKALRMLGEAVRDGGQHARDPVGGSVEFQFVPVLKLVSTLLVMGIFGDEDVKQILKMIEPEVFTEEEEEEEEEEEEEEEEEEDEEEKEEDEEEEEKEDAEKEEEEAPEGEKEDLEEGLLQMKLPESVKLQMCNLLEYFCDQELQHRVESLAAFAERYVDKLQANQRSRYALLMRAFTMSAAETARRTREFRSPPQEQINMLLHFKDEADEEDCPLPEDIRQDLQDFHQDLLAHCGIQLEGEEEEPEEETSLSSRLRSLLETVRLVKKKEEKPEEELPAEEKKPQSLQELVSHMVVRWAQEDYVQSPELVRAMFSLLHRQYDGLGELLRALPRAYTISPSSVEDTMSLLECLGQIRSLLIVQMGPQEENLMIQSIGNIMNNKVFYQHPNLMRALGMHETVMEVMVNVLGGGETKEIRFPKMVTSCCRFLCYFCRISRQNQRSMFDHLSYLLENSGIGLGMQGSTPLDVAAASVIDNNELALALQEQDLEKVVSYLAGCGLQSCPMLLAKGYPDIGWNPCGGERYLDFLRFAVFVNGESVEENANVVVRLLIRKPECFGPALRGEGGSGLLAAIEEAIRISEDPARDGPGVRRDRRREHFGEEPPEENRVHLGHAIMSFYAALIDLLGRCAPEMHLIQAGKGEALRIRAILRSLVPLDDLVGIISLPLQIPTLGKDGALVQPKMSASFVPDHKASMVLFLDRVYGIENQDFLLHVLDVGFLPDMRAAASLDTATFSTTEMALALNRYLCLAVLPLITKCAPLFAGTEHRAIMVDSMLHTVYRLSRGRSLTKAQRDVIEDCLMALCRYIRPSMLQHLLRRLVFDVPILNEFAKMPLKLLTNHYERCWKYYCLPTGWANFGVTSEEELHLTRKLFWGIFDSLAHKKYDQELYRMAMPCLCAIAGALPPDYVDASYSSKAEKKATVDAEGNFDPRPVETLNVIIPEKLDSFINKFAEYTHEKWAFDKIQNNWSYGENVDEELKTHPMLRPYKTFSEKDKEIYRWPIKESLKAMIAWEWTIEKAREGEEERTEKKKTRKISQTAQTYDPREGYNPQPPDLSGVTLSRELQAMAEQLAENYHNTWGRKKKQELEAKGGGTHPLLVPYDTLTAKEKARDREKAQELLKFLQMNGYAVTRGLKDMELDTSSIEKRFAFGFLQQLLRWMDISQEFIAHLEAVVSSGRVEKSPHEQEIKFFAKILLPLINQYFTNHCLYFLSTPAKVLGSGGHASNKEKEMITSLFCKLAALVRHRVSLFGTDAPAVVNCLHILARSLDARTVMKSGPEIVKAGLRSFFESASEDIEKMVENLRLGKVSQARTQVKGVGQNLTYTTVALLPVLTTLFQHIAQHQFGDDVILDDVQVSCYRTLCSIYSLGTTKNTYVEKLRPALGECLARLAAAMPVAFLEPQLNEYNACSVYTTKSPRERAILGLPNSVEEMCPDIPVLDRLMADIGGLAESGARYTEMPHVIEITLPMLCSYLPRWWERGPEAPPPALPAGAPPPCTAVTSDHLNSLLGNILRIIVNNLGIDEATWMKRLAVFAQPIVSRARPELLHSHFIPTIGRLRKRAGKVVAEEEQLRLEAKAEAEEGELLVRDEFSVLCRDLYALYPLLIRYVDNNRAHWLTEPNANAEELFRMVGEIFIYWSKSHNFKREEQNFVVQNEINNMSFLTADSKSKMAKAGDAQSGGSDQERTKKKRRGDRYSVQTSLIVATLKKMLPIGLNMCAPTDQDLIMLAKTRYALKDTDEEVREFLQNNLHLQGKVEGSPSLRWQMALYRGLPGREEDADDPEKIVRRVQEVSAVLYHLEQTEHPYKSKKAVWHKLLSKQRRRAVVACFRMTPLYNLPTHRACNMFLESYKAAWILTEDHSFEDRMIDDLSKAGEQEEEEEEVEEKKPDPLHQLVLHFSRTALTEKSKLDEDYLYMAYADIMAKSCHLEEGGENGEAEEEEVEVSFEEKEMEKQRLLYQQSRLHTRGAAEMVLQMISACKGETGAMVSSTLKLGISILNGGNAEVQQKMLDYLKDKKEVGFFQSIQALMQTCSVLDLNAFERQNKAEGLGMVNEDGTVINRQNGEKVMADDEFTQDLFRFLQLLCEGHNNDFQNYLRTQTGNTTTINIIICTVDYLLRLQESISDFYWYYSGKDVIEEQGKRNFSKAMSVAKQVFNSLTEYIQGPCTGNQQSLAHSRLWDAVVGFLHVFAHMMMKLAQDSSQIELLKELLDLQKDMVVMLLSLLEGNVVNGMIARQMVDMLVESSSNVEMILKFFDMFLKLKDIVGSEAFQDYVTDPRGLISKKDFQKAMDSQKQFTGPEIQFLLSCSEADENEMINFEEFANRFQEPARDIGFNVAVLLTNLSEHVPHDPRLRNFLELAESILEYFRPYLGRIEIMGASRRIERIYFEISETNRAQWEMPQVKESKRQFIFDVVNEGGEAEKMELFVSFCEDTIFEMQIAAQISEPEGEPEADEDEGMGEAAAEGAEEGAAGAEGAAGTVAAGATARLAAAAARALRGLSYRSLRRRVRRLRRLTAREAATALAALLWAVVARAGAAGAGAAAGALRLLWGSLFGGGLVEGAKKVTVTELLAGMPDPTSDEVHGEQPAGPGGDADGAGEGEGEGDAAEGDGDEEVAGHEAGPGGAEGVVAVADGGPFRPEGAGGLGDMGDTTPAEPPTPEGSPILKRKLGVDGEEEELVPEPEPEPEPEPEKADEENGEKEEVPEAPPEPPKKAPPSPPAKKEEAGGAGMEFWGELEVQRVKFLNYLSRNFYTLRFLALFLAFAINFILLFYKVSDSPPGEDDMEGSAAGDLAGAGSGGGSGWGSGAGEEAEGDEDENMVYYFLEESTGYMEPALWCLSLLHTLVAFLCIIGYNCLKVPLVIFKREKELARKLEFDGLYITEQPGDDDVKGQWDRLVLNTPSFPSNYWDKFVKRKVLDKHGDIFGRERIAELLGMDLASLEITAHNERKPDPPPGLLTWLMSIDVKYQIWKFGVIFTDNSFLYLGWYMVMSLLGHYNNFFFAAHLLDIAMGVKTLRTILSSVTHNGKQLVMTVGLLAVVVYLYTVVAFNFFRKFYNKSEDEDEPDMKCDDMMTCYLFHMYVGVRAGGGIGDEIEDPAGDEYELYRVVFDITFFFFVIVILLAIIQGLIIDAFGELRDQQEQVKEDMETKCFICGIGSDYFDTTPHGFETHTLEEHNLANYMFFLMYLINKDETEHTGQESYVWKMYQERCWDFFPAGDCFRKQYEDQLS
The settings on record: cited from earlier work; for Bound [3H]ryanodine pmol/mg protein / Bound [3H]ryanodine, % of control, +1 mmol/l AMPPCP / Bound [3H]ryanodine, % of control, +3 mmol/l AMP / Bound [3H]ryanodine % of control: xanthine […]; for Bound [3H]ryanodine pmol/mg protein / Bound [3H]ryanodine % of control: 1 mmol/l AMPPCP; for Bound [3H]ryanodine pmol/mg protein: means±SD of 3-4 experiments; for effect on the [3H] ryanodine binding compared to the control xanthine: Table 3.

Setting [1] is: control 3,7-dimethylxanthine = 100.
Where [2] appears, read: control 1,3-dimethylxanthine = 100.

For the compound `Cn1c(=O)c2ncn(C)c2n(C)c1=O` [1,3,9-Trimethylxanthine], the “Bound [3H]ryanodine pmol/mg protein” value is on record as 1.77 ± 0.12 pmol/mg protein. Also, for the setting “control (-xanthine) = 100”, the “Bound [3H]ryanodine, % of control, +1 mmol/l AMPPCP” value is 105 ± 7 % of control and the “Bound [3H]ryanodine, % of control, +3 mmol/l AMP” value is given as 103 ± 15 % of control.

In the case of `CCCn1c(=O)c2c(ncn2C)n(CCC)c1=O` [1,3-Dipropyl-7-methylxanthine], the “Bound [3H]ryanodine pmol/mg protein” value is 4.96 ± 0.39 pmol/mg protein. Besides, for the setting “control (-xanthine) = 100”, the “Bound [3H]ryanodine, % of control, +1 mmol/l AMPPCP” value is given as 295 ± 23 % of control and the “Bound [3H]ryanodine, % of control, +3 mmol/l AMP” value was 326 ± 30 % of control.

With `Cn1c(=O)[nH]c2ncn(C)c2c1=O` [1,7-Dimethylxanthine], the “Bound [3H]ryanodine pmol/mg protein” value is given as 6.08 ± 0.47 pmol/mg protein. Further, for the setting “control (-xanthine) = 100”, the “Bound [3H]ryanodine % of control” value is recorded as 360 ± 28 % of control; the “Bound [3H]ryanodine, % of control, +1 mmol/l AMPPCP” value is recorded as 360 ± 28 % of control; the “Bound [3H]ryanodine, % of control, +3 mmol/l AMP” value is 378 ± 34 % of control.

`Cn1c(=O)[nH]c2c(ncn2C)c1=O` [1,9-Dimethylxanthine]: the “effect on the [3H] ryanodine binding compared to the control xanthine” value is listed as “less than 110%” and the “Bound [3H]ryanodine pmol/mg protein” value is reported as 1.42 ± 0.23 pmol/mg protein. In addition, where the note is “control (-xanthine) = 100”, the “Bound [3H]ryanodine % of control” value is given as 84 ± 14 % of control; the “Bound [3H]ryanodine, % of control, +1 mmol/l AMPPCP” value is on record as 84 ± 14 % of control; the “Bound [3H]ryanodine, % of control, +3 mmol/l AMP” value is 86 ± 18 % of control.

For the compound `CC(=O)CCCCn1c(=O)c2c(ncn2C)n(C)c1=O` [1-(5-Oxohexyl)-3,7-dimethylxanthine], the “Bound [3H]ryanodine pmol/mg protein” value is 3.18 ± 0.08 pmol/mg protein. Further, the “Bound [3H]ryanodine % of control” value under setting [1] is given as 118 ± 3 % of control. Further, where the note is “control (-xanthine) = 100”, the “Bound [3H]ryanodine, % of control, +1 mmol/l AMPPCP” value is 188 ± 5 % of control and the “Bound [3H]ryanodine, % of control, +3 mmol/l AMP” value was 185 ± 25 % of control.

For `CCCCCCn1c(=O)c2c(ncn2C)n(C)c1=O` [1-Hexyl-3,7-dimethylxanthine], the “effect on the [3H] ryanodine binding compared to the control xanthine” value was “more than 200%” and the “Bound [3H]ryanodine pmol/mg protein” value is given as 6.99 ± 0.80 pmol/mg protein. Besides, the “Bound [3H]ryanodine % of control” value under setting [1] is 259 ± 24 % of control. Under “control (-xanthine) = 100”, the “Bound [3H]ryanodine, % of control, +1 mmol/l AMPPCP” value is listed as 414 ± 47 % of control and the “Bound [3H]ryanodine, % of control, +3 mmol/l AMP” value is reported as 449 ± 28 % of control.

As to `Cn1c(=O)[nH]c2nc[nH]c2c1=O` [1-Methylxanthine], the “Bound [3H]ryanodine pmol/mg protein” value is on record as 3.02 ± 0.38 pmol/mg protein. Further, for the setting “control (-xanthine) = 100”, the “Bound [3H]ryanodine % of control” value is recorded as 179 ± 22 % of control; the “Bound [3H]ryanodine, % of control, +1 mmol/l AMPPCP” value is on record as 179 ± 22 % of control; the “Bound [3H]ryanodine, % of control, +3 mmol/l AMP” value is 167 ± 16 % of control.

With `C#CCn1c(=O)c2c(ncn2C)n(C)c1=O` [3,7-Dimethyl-1-propargylxanthine], the “Bound [3H]ryanodine pmol/mg protein” value is 3.88 ± 0.10 pmol/mg protein. The “Bound [3H]ryanodine % of control” value under setting [1] is reported as 144 ± 3 % of control. Moreover, under “control (-xanthine) = 100”, the “Bound [3H]ryanodine, % of control, +1 mmol/l AMPPCP” value is recorded as 230 ± 6 % of control and the “Bound [3H]ryanodine, % of control, +3 mmol/l AMP” value was 201 ± 33 % of control.

Turning to `Cn1cnc2c(=O)[nH]c(=O)n(C)c21` [3,9-Dimethylxanthine], the “Bound [3H]ryanodine pmol/mg protein” value is given as 2.42 ± 0.34 pmol/mg protein. Further, where the note is “control (-xanthine) = 100”, the “Bound [3H]ryanodine % of control” value is 143 ± 20 % of control; the “Bound [3H]ryanodine, % of control, +1 mmol/l AMPPCP” value was 143 ± 20 % of control; the “Bound [3H]ryanodine, % of control, +3 mmol/l AMP” value is given as 141 ± 11 % of control.

With `CC(C)Cn1c(=O)n(C)c(=O)c2[nH]cnc21` [3-Isobutyl-1-methylxanthine], the “Bound [3H]ryanodine pmol/mg protein” value is 2.96 ± 0.33 pmol/mg protein. Where the note is “control (-xanthine) = 100”, the “Bound [3H]ryanodine % of control” value was 175 ± 20 % of control; the “Bound [3H]ryanodine, % of control, +1 mmol/l AMPPCP” value is 175 ± 20 % of control; the “Bound [3H]ryanodine, % of control, +3 mmol/l AMP” value is listed as 139 ± 11 % of control.

Consider `Cn1c(=O)[nH]c(=O)c2[nH]cnc21` [3-Methylxanthine], for which the “Bound [3H]ryanodine pmol/mg protein” value is reported as 2.26 ± 0.15 pmol/mg protein. Moreover, under “control (-xanthine) = 100”, the “Bound [3H]ryanodine % of control” value is 134 ± 9 % of control; the “Bound [3H]ryanodine, % of control, +1 mmol/l AMPPCP” value was 134 ± 9 % of control; the “Bound [3H]ryanodine, % of control, +3 mmol/l AMP” value is recorded as 137 ± 10 % of control.

Take `CCCn1c(=O)[nH]c(=O)c2[nH]cnc21` [3-Propylxanthine]: the “Bound [3H]ryanodine pmol/mg protein” value is on record as 3.82 ± 0.23 pmol/mg protein. Also, where the note is “control (-xanthine) = 100”, the “Bound [3H]ryanodine % of control” value is 226 ± 14 % of control; the “Bound [3H]ryanodine, % of control, +1 mmol/l AMPPCP” value is recorded as 226 ± 14 % of control; the “Bound [3H]ryanodine, % of control, +3 mmol/l AMP” value was 203 ± 14 % of control.

Regarding `CN1CN(C)c2c1[nH]c(=O)[nH]c2=O` [7,9-Dimethylxanthine], the “Bound [3H]ryanodine pmol/mg protein” value was 1.73 ± 0.22 pmol/mg protein. In addition, where the note is “control (-xanthine) = 100”, the “Bound [3H]ryanodine % of control” value is 102 ± 13 % of control; the “Bound [3H]ryanodine, % of control, +1 mmol/l AMPPCP” value is listed as 102 ± 13 % of control; the “Bound [3H]ryanodine, % of control, +3 mmol/l AMP” value is given as 100 ± 15 % of control.

Regarding `Cn1c(=O)c2c(ncn2CC(O)CO)n(C)c1=O` (stereo not shown) [7-(2,3-Dihydroxypropyl)-1,3-dimethylxanthine], the “Bound [3H]ryanodine pmol/mg protein” value is listed as 1.97 ± 0.16 pmol/mg protein. For the same compound, the “Bound [3H]ryanodine % of control” value under setting [2] is on record as 69 ± 6 % of control. Moreover, where the note is “control (-xanthine) = 100”, the “Bound [3H]ryanodine, % of control, +1 mmol/l AMPPCP” value was 117 ± 9 % of control and the “Bound [3H]ryanodine, % of control, +3 mmol/l AMP” value is given as 123 ± 16 % of control.

With `CCCn1cnc2[nH]c(=O)[nH]c(=O)c21` [7-Propylxanthine], the “Bound [3H]ryanodine pmol/mg protein” value is reported as 4.57 ± 0.20 pmol/mg protein. Also, where the note is “control (-xanthine) = 100”, the “Bound [3H]ryanodine % of control” value is 270 ± 12 % of control; the “Bound [3H]ryanodine, % of control, +1 mmol/l AMPPCP” value is 270 ± 12 % of control; the “Bound [3H]ryanodine, % of control, +3 mmol/l AMP” value is listed as 234 ± 14 % of control.

In the case of `Cn1c(=O)c2c(ncn2CCCl)n(C)c1=O` [7β-Chloroethyl-1,3-dimethylxanthine], the “Bound [3H]ryanodine pmol/mg protein” value was 3.88 ± 0.16 pmol/mg protein. Also, the “Bound [3H]ryanodine % of control” value under setting [2] is given as 135 ± 6 % of control. Moreover, under “control (-xanthine) = 100”, the “Bound [3H]ryanodine, % of control, +1 mmol/l AMPPCP” value was 230 ± 9 % of control and the “Bound [3H]ryanodine, % of control, +3 mmol/l AMP” value is 256 ± 34 % of control.

Take `Cn1c(=O)c2c(ncn2CCO)n(C)c1=O` [7β-Hydroxyethyl-1,3-dimethylxanthine]: the “Bound [3H]ryanodine pmol/mg protein” value is 2.10 ± 0.26 pmol/mg protein. Besides, the “Bound [3H]ryanodine % of control” value under setting [2] is reported as 73 ± 4 % of control. Also, under “control (-xanthine) = 100”, the “Bound [3H]ryanodine, % of control, +1 mmol/l AMPPCP” value was 124 ± 15 % of control and the “Bound [3H]ryanodine, % of control, +3 mmol/l AMP” value is listed as 134 ± 15 % of control.

Consider `Cn1c(=O)c2[nH]c(-c3ccc(S(=O)(=O)O)cc3)nc2n(C)c1=O` [8-(p-Sulfophenyl)-1,3-dimethylxanthine], for which the “Bound [3H]ryanodine pmol/mg protein” value is listed as 1.55 ± 0.28 pmol/mg protein. Under setting [2], the “Bound [3H]ryanodine % of control” value was 54 ± 6 % of control. For the same compound, where the note is “control (-xanthine) = 100”, the “Bound [3H]ryanodine, % of control, +1 mmol/l AMPPCP” value is listed as 92 ± 17 % of control and the “Bound [3H]ryanodine, % of control, +3 mmol/l AMP” value is 91 ± 16 % of control.

As to `Cn1c(=O)c2[nH]c(Cl)nc2n(C)c1=O` [8-Chloro-1,3-dimethylxanthine], the “Bound [3H]ryanodine pmol/mg protein” value was 1.96 ± 0.13 pmol/mg protein. For the same compound, the “Bound [3H]ryanodine % of control” value under setting [2] is 68 ± 4 % of control. For the same compound, where the note is “control (-xanthine) = 100”, the “Bound [3H]ryanodine, % of control, +1 mmol/l AMPPCP” value is reported as 116 ± 17 % of control and the “Bound [3H]ryanodine, % of control, +3 mmol/l AMP” value was 108 ± 14 % of control.
